Where “and” joins values, the source holds several entries; their conditions need not be identical. Equal values may be shown once. Read-outs that look alike come from different tables or passages of the source.
Columns and labels:
Mcl-1 [1] = target: T1, Mcl-1 (Mus musculus, UniProt P97287); assay: Binary KTGS incubation (1 TA x 1 SZ) with Mcl-1, LC-MS/MS; conditions: binary incubation mixtures with and without Mcl-1
GST-Bcl-XL = GST-Bcl-XL (Homo sapiens, UniProt Q07817); assay: Fluorescence polarization assay, GST-Bcl-XL / fluorescein-labeled Bak BH3 peptide; assay type: binding; conditions: FP, GST-Bcl-XL and fluorescein-labeled Bak BH3 peptide; ND = not detected
Chain of GST-Bcl-XL (Q07817 whole entry): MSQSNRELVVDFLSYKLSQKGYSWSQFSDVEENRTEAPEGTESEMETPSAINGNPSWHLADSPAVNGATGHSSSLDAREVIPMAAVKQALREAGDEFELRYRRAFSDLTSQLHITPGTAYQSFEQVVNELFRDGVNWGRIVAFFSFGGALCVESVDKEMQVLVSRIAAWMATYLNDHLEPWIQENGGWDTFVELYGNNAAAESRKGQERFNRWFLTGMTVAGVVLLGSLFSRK

[2] = target: GST-tagged mouse Mcl-1-(152–309) (Mus musculus, UniProt P97287); assay: Fluorescence polarization competitive binding assay, GST-Mcl-1 / FITC-Bim-BH3; parameters: selectivity index: reference not given here; conditions: for inhibition at 50 µM: compound at 50 µM
Chain of GST-tagged mouse Mcl-1-(152–309) (P97287 152-309): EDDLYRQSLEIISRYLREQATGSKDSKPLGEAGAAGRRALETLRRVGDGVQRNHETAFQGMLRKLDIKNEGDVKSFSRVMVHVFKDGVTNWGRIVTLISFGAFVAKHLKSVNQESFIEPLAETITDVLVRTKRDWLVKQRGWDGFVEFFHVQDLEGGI

Mcl-1 [3] = target: T1, Mcl-1; assay: Multifragment KTGS screen against Mcl-1 (5 TA x 38 SZ per well), LC-MS/MS; conditions: multifragment KTGS, 190 combinations per well, 10 μM Mcl-1, 20 μM each fragment, pH 7.4, 37 °C, 10 h; peak area with protein / without protein
[4] = FP, GST-Mcl-1 and fluorescein-labeled Bim BH3 peptide, read-out: IC50 on Mcl-1

T1 sequence (P97287 whole entry): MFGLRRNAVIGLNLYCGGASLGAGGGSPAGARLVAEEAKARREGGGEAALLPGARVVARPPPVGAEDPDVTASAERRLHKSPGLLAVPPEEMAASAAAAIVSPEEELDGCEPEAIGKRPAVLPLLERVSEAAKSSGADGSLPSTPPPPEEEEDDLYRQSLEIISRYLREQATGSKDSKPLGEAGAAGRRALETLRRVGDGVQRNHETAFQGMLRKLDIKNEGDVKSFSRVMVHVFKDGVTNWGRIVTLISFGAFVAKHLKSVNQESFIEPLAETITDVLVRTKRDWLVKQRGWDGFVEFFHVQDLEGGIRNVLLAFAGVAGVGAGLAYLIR

Compound | Amplification coefficient 1TA x 1SZ (Mcl-1 [1]) | IC50 (GST-Bcl-XL) | IC50 [2, 4] | inhibition at 50 µM ([2]; FP) | selectivity index ([2]; quotient of the IC50 toward Bcl-XL over the IC50 toward Mcl-1) | Amplification coefficient 5TA x 38SZ (Mcl-1 [3]) | IC50 on Bcl-XL (GST-Bcl-XL) | IC50 ([2]; IC50 on Mcl-1) | selectivity index [2]
O=C(NS(=O)(=O)c1ccc(NCCSc2ccccc2)c([N+](=O)[O-])c1)c1ccc(CCc2ccccn2)cc1 [SZ4TA17, O=C(NS(C1=CC=C(NCCSC2=CC=CC=C2)C([N+]([O-])=O)=C1)(=O)=O)C3=CC=C(CCC4=NC=CC=C4)C=C3] | 10 | 2.1 µM and 2.08 µM | 61 µM and 60.6 µM | 44.7% | 0.03 | 8 | – | – | –
O=C(NS(=O)(=O)c1ccc(NCCSc2ccccc2)c([N+](=O)[O-])c1)c1ccc2c(ccn2Cc2ccc(C(F)(F)F)cc2C(F)(F)F)c1 [SZ4TA30, O=C(NS(C1=CC=C(NCCSC2=CC=CC=C2)C([N+]([O-])=O)=C1)(=O)=O)C3=CC(C=CN4CC5=CC=C(C(F)(F)F)C=C5C(F)(F)F)=C4C=C3] | 4 | > 50 µM | 26.1 µM | 80.7% | – | 20 | – | – | –
O=C(NS(=O)(=O)c1ccc(CNc2cccc([N+](=O)[O-])c2)cc1)c1ccc(CN2C(=O)C(c3ccc(F)cc3F)=C(c3ccc(F)cc3F)C2=O)cc1 [SZ12TA42, O=C(NS(C1=CC=C(CNC2=CC=CC([N+]([O-])=O)=C2)C=C1)(=O)=O)C3=CC=C(CN4C(C(C5=C(F)C=C(F)C=C5)=C(C6=CC=C(F)C=C6F)C4=O)=O)C=C3] | 6 | – | 13.6 µM | 89.4% | – | 9 | below the detectable threshold | – | –
O=C(NS(=O)(=O)c1ccc(CN(CCSc2ccccc2)Cc2c(F)cccc2Cl)cc1)c1ccccc1 [SZ15TA1, O=C(NS(C1=CC=C(CN(CCSC2=CC=CC=C2)CC3=C(F)C=CC=C3Cl)C=C1)(=O)=O)C4=CC=CC=C4] | 5 | 29.1 µM | – | 92.5% | – | 13 | – | 9.7 µM | –
Cc1nc(-c2ccccc2)sc1C(=O)NS(=O)(=O)c1ccc(CN(CCSc2ccccc2)Cc2c(F)cccc2Cl)cc1 [SZ15TA3, O=C(NS(C1=CC=C(CN(CCSC2=CC=CC=C2)CC3=C(F)C=CC=C3Cl)C=C1)(=O)=O)C4=C(C)N=C(C5=CC=CC=C5)S4] | 5 | 36.4 µM | – | 95.9% | – | 10 | – | 5.8 µM | –
COc1cc(OC)cc(C(=O)NS(=O)(=O)c2ccc(CN(CCSc3ccccc3)Cc3c(F)cccc3Cl)cc2)c1 [SZ15TA5, O=C(NS(C1=CC=C(CN(CCSC2=CC=CC=C2)CC3=C(F)C=CC=C3Cl)C=C1)(=O)=O)C4=CC(OC)=CC(OC)=C4] | 4 | 53 µM | – | > 99% | – | 9 | – | 13.4 µM | 4.0
O=C(NS(=O)(=O)c1ccc(CN(CCSc2ccccc2)Cc2c(F)cccc2Cl)cc1)c1ccc(OC(F)(F)F)cc1 [SZ15TA8, O=C(NS(C1=CC=C(CN(CCSC2=CC=CC=C2)CC3=C(F)C=CC=C3Cl)C=C1)(=O)=O)C4=CC=C(OC(F)(F)F)C=C4] | 6 | 47 µM | – | 96.5% | – | 7 | – | 7.6 µM | 6.2
O=C(NS(=O)(=O)c1ccc(CN(CCSc2ccccc2)Cc2c(F)cccc2Cl)cc1)c1ccc(CCc2ccccn2)cc1 [SZ15TA17, O=C(NS(C1=CC=C(CN(CCSC2=CC=CC=C2)CC3=C(F)C=CC=C3Cl)C=C1)(=O)=O)C4=CC=C(CCC5=NC=CC=C5)C=C4] | 7 | 55.9 µM | – | 89.5% | – | 7 | – | 20.2 µM | –
O=C(NS(=O)(=O)c1ccc(CN(CCSc2ccccc2)Cc2c(F)cccc2Cl)cc1)c1ccc(-c2ccccn2)cc1 [SZ15TA25, O=C(NS(C1=CC=C(CN(CCSC2=CC=CC=C2)CC3=C(F)C=CC=C3Cl)C=C1)(=O)=O)C4=CC=C(C5=NC=CC=C5)C=C4] | 4.5 | 54.9 µM | – | 89% | – | 15 | – | 15.3 µM | –
COc1cccc(CN(CCSc2ccccc2)Cc2ccc(S(=O)(=O)NC(=O)c3sc(-c4ccccc4)nc3C)cc2)c1 [SZ17TA3, O=C(NS(C1=CC=C(CN(CC2=CC(OC)=CC=C2)CCSC3=CC=CC=C3)C=C1)(=O)=O)C4=C(C)N=C(C5=CC=CC=C5)S4] | 12 | 50 µM | 8.6 µM | > 99% | – | 25 | – | – | –
COc1cccc(CN(CCSc2ccccc2)Cc2ccc(S(=O)(=O)NC(=O)c3cccc4ccccc34)cc2)c1 [SZ17TA7, O=C(NS(C1=CC=C(CN(CC2=CC(OC)=CC=C2)CCSC3=CC=CC=C3)C=C1)(=O)=O)C4=C(C=CC=C5)C5=CC=C4] | 12 | 72 µM | 20.1 µM | 87.3% | – | 10 | – | – | –
COc1cccc(CN(CCSc2ccccc2)Cc2ccc(S(=O)(=O)NC(=O)c3ccc4c(c3)c(C(=O)c3cccs3)cn4C)cc2)c1 [SZ17TA45, O=C(NS(C1=CC=C(CN(CCSC2=CC=CC=C2)CC3=CC(OC)=CC=C3)C=C1)(=O)=O)C4=CC(C(C(C5=CC=CS5)=O)=CN6C)=C6C=C4] | 20 | – | – | 34.5% | – | 16 | – | – | –
CCOc1ccc(-c2ccc3c(c2)c(C(=O)NS(=O)(=O)c2cccc4c(N(C)C)cccc24)cn3C)cc1F [SZ21TA23, O=C(NS(C1=CC=CC2=C1C=CC=C2N(C)C)(=O)=O)C(C3=C4C=CC(C5=CC=C(OCC)C(F)=C5)=C3)=CN4C] | 4 | – | – | 42.8% | – | 7 | – | – | –
Cn1cc(C(=O)c2cccs2)c2cc(C(=O)NS(=O)(=O)CCN(CCSc3ccccc3)Cc3ccc4c(c3)OCO4)ccc21 [SZ28TA45, O=C(NS(CCN(CC1=CC=C(OCO2)C2=C1)CCSC3=CC=CC=C3)(=O)=O)C4=CC(C(C(C5=CC=CS5)=O)=CN6C)=C6C=C4] | 5 | – | – | 54% | – | 8 | – | – | –
Cc1nc(-c2ccccc2)sc1C(=O)NS(=O)(=O)c1ccc(CN(CCSc2ccccc2)Cc2ccc3c(c2)OCO3)cc1 [SZ31TA3, O=C(NS(C1=CC=C(CN(CCSC2=CC=CC=C2)CC3=CC(OCO4)=C4C=C3)C=C1)(=O)=O)C5=C(C)N=C(C6=CC=CC=C6)S5] | 7 | – | 9.4 µM | > 99% | – | 15 | – | – | –
O=C(NS(=O)(=O)c1ccc(CN(CCSc2ccccc2)Cc2ccc3c(c2)OCO3)cc1)c1ccc(OC(F)(F)F)cc1 [SZ31TA8, O=C(NS(C1=CC=C(CN(CCSC2=CC=CC=C2)CC3=CC(OCO4)=C4C=C3)C=C1)(=O)=O)C5=CC=C(OC(F)(F)F)C=C5] | 4 | – | 5.9 µM | > 99% | – | 7 | – | – | –
O=C(NS(=O)(=O)c1ccc(CN(CCSc2ccccc2)Cc2ccc3c(c2)OCO3)cc1)c1ccc(-c2ccc(F)cc2)cc1 [SZ31TA14, O=C(NS(C1=CC=C(CN(CC2=CC(OCO3)=C3C=C2)CCSC4=CC=CC=C4)C=C1)(=O)=O)C5=CC=C(C6=CC=C(F)C=C6)C=C5] | 4 | – | – | 59.5% | – | 10 | – | – | –
Cn1cc(C(=O)C2CCCCC2)c2cc(C(=O)NS(=O)(=O)c3ccc(CN(CCSc4ccccc4)Cc4ccc5c(c4)OCO5)cc3)ccc21 [SZ31TA40, O=C(NS(C1=CC=C(CN(CCSC2=CC=CC=C2)CC3=CC(OCO4)=C4C=C3)C=C1)(=O)=O)C5=CC=C6C(C(C(C7CCCCC7)=O)=CN6C)=C5] | 8 | – | – | -52.4% | – | 56 | – | – | –
O=C(NS(=O)(=O)c1ccc(CN(CCSc2ccccc2)Cc2ccc3c(c2)OCO3)cc1)c1cccc(NCCc2ccccc2)c1 [SZ31TA44, O=C(NS(C1=CC=C(CN(CC2=CC(OCO3)=C3C=C2)CCSC4=CC=CC=C4)C=C1)(=O)=O)C5=CC(NCCC6=CC=CC=C6)=CC=C5] | 12 | – | – | 36.5% | – | 10 | – | – | –
Cn1cc(C(=O)c2cccs2)c2cc(C(=O)NS(=O)(=O)c3ccc(CN(CCSc4ccccc4)Cc4ccc5c(c4)OCO5)cc3)ccc21 [SZ31TA45, O=C(NS(C1=CC=C(CN(CC2=CC(OCO3)=C3C=C2)CCSC4=CC=CC=C4)C=C1)(=O)=O)C5=CC(C(C(C6=CC=CS6)=O)=CN7C)=C7C=C5] | 6 | – | – | 40.2% | – | 25 | – | – | –
O=C(NS(=O)(=O)c1ccc(-c2ccc(Oc3ccccc3)cc2)cc1)c1cccc2ccccc12 [SZ35TA7, O=C(NS(C1=CC=C(C2=CC=C(OC3=CC=CC=C3)C=C2)C=C1)(=O)=O)C4=CC=CC5=C4C=CC=C5] | 4 | – | – | 87.8% | – | 25 | – | – | –
O=C(NS(=O)(=O)c1ccc(-c2ccc(Oc3ccccc3)cc2)cc1)c1ccc(CCc2ccccn2)cc1 [SZ35TA17, O=C(NS(C1=CC=C(C2=CC=C(OC3=CC=CC=C3)C=C2)C=C1)(=O)=O)C4=CC=C(CCC5=NC=CC=C5)C=C4] | 9 | – | – | 89.2% | – | 9 | – | – | –
COc1ccc(Cc2ccc(C(=O)NS(=O)(=O)c3ccc(-c4ccc(Oc5ccccc5)cc4)cc3)cc2)c(OC)c1OC [SZ35TA24, O=C(NS(C1=CC=C(C2=CC=C(OC3=CC=CC=C3)C=C2)C=C1)(=O)=O)C4=CC=C(CC5=CC=C(OC)C(OC)=C5OC)C=C4] | 8 | – | – | 76.4% | – | 9 | – | – | –
